Measured values as given in patent publication US20170137481A1, “Use of Cell-Permeable Peptide Inhibitors of the JNK Signal Transduction Pathway for the Treatment of Various Diseases” (Xigen Inflammation Ltd., priority 2014, published 2017).
Marks after values point to notes of the source that are not given here.

Tests used:
[1] = test system: post-surgery intraocular inflammation; experiment: Phase II post-surgery intraocular inflammation, efficacy; assay type: in vivo, human; details: for Cleared ocular inflammation (cell grade 0 and flare grade 0): Yes: Dexamethasone
Procedure: The objectives of the present study were to evaluate the efficacy and safety of a single sub-conjunctival injection of XG-102 90 or 900 μg administered within maximally 3 hours after the end of the surgical procedure compared to dexamethasone eye drops administered 4 times/day for 21 days in post-operative intraocular inflammation.
In accordance with this trial's primary objective, the primary outcome was evaluated by the mean anterior chamber cells grade at day 28 post-administration of the sub-conjunctival injection of study treatment comparing XG-102 900 μg with dexamethasone eye drops.
The present trial was a randomized (1:1:1), controlled, double-blind, multicenter non-inferiority clinical trial with three parallel groups of equal size. Randomization, which was blocked by center, was performed using a web-based, secure, randomization system. Eligible patients were male or female (post-menopausal, or sterile by tubal ligation or hysterectomy), who were >18 years of age and who had undergone one of the following ocular surgeries: (a) anterior and posterior segment combined surgery which may include surgery for: cataract and retinal detachment, cataract and epimacular membrane and/or cataract and macular hole or (b) glaucoma surgery or (c) complex posterior segment surgery or (d) complicated intraocular surgery which may include cataract surgery associated with diabetic retinopathy and/or complicated retinal detachment ocular surgery. Patients were not eligible to participate if any of the following exclusion criteria was present at the moment of randomization:
The study protocol planned that 138 patients would be randomized and administered the sub-conjunctival injection of study treatment. […] Patients were randomly allocated to either XG-102 90 or 900 μg which was administered as a single, sub-conjunctival injection of 250 μl within maximally 3 hours after the end of the eye surgery or to dexamethasone eye drops, which were instilled 4 times per day for 21 days. The first study treatment eye drop was instilled within maximally 15 minutes after the sub-conjunctival injection of study treatment. In order to maintain the blinding, patients randomized to the XG-102 group received eye drops containing a NaCl 0.9% solution and patients randomized to the dexamethasone group were administered a sub-conjunctival injection containing NaCl 0.9%. Patients were followed for, in total, 28 (±5) days after administration of the sub-conjunctival injection of study treatment.
Patients were randomized to one of the three study groups: • 1. A single sub-conjunctival injection of XG-102 90 μg+placebo eye drops 4 times/day for 21 days or • 2. A single sub-conjunctival injection of XG-102 900 μg+placebo eye drops 4 times/day for 21 days or • 3. A single sub-conjunctival injection of NaCl 0.9%+dexamethasone eye drops 4 times/day for 21 days.
The primary objective was evaluated by the mean anterior chamber cells grade at day 28 post-administration of the sub-conjunctival administration of study treatment. The criteria for evaluation of the primary objective was
The ophthalmology examinations were performed at baseline (i.e. either on the day of surgery, but before the surgery was performed). […] In order to reduce operator variability, the sites were instructed that, where possible, the same operator should perform all ophthalmology examinations for the same patient throughout the trial. The ophthalmology measurements were performed in accordance with the study-specific instructions. The latter were reviewed and discussed with the site teams during the initiation visit and during each monitoring visit. For the determination of the cell/flare count and cell/flare grade, the SUN Working Group's consensus was used by the sites using the SUN Working group definitions (“Standardization of Uveitis Nomenclature for Reporting Clinical Data. Results of the First International Workshop.,” American Journal of Ophthalmology, vol 140, no. 3, pp. 509-516, 2005). […]

[2] = test system: patients who underwent complex ocular surgery; experiment: Phase II post-surgery intraocular inflammation, safety
Source text: The criteria for evaluation of safety were:
An AE is therefore any unfavorable and unintended sign, symptom or disease temporally associated with the use of a medicinal product, whether or not considered related to the medicinal product.
The present study was a double-blind study. All patients who were randomized and for whom the sub-conjunctival injection was started are included in the safety analysis by dose group. […] If the study treatment eye drops were stopped prematurely (i.e. before day 21), the patients concerned continued follow-up until day 28, in accordance with the study protocol.
Investigators assessed (in a blinded manner) the relationship of each reported AE to any of the study treatments. An event was considered to be related to study treatment if the Investigator ticked either ‘possible’ or ‘probable’ as the reply to this question.

[3] = test system: light-induced photoreceptor cell death in Sprague-Dawley rats; experiment: Photoreceptor light damage in albino rat (ERG, ONL thickness); assay type: in vivo
Procedure: The aim of this study was to investigate the dose effect of XG-102 on light-induced photoreceptor cell death.
Test item (XG-102: 30 mg/ml, 3 mg/ml, and 0.3 mg/ml) and vehicle (0.9% NaCl) were administered by intravitreal injection in right eyes the day before induction. The reference (Phenyl-N-test-Butylnitrone (PBN) (50 mg/kg)) and vehicle were intraperitoneally injected 30 min before induction then, 3 times during 12 hours of light exposition, then once after induction. Animals were placed in constant light (7000 lux) for 24 h. Electroretinograms (ERG) were recorded before light treatment and on days 9, 16 and 23 after induction. Eyes were then taken for histology and outer nuclear layer (ONL) thickness assessment. The table below summarizes the allocation of animals in treatment groups:
For the intravitreal injection animals were anesthetized by intramuscular injection of a mixture of xylazine/ketamine. Test item (5 μl) and vehicle (5 μl) were injected in the right eye. The injection was performed under an operating microscope in the supratemporal area at pars plana using a 33G-needle mounted on a 50 μl Hamilton. The filled syringe was mounted into the UltraMicroPump III to achieve accurate injection in microliter range. Reference and vehicle were injected intraperitoneally at a dose volume of 2.5 ml/kg using a 30G-needle mounted on a 1 ml-syringe.
Light Exposure: The rats that had been dark-adapted overnight were exposed for 24 hours to a continuous white fluorescent light (7000 lx) in clear plastic cages. Each cage contained one rat. After exposure, the rats returned to rearing cyclic light conditions.
The body weight of all animals was recorded before the start of the study then at the end of the study. Each day, the general behavior and the aspect of all animals were observed. ERG was recorded before induction and 7, 14 and 21 days after cessation of exposure (Days 9, 16 and 23) on right eyes of dark-adapted and anesthezied animals. The latency times (for a- and b-wave) and the a-wave and b-wave amplitudes were measured for each ERG; the latency times were expressed as millisecond and the a-wave and b-wave as a percentage of the baseline value obtained before light exposure. 15 min before measurement 10 μl Mydriaticum® (0.5% tropicamide) were instilled for pupillary dilatation.
ERG Parameters: • Color: white maximum. • Maximum intensity: 2.6 cd.s/m^2 (0 dB); Duration 0.24 ms; number of flash: 1. • Filter: 50 Hz. • Impedence Threshold: 90 kΩ.
Measurement of the ONL Thickness: After ERG testing, animal was euthanized by an overdose of pentobarbital and the right eyes were enucleated, fixed and embedded in paraffin. Sections (5 μm thick) were performed along the vertical meridian and stained with Trichrome-Masson. The vertical meridian included the optic nerve.
Group mean values and standard deviation were calculated. A statistical Mann and Whitney test was used to evaluate the differences between pair-wise groups. For comparison between time-point into each vehicle groups, a Friedman test was used.

[4] = test system: Endotoxin-Induced Uveitis in Lewis rats; experiment: Endotoxin-Induced Uveitis (EIU), action duration after subconjunctival administration; assay type: in vivo, rat
Source text: The aim of this study was to evaluate the duration of action of SDD-1002 following sub-conjunctival administration in a rat model of EIU.
90 male Lewis rats were used, age approximately 6-8 weeks (at the induction), 4 weeks (at the injection for the Day-28), 5 weeks (at the injection for the Day-21), 6 weeks (at the injection for the Day-14, Day-7 and for the Day 0), 7 weeks (at the injection for Day-2 and Day-1), and housed by five in standard cages. Animals were allocated to the following groups: Group No. Treatment Dose Time-point
Thus, each animal received a single subconjunctival injection of either XG-102 (20 μg/eye), saline (0.9% NaCl) vehicle control or Solumedrol® (20 μg/eye) into each eye. Methylprednisolone (Solumedrol®) is most commonly used in uveitis as sub-conjunctival treatment.
On Day 0, ocular inflammation was induced by a single footpad injection of liposaccharide (LPS, 1 mg/kg, 0.5 mL/kg Sigma # L6511) on anesthetized animals. LPS powder was reconstituted the day of induction. XG-102 was administered by a single injection (20 microgram/5 microL) in each eye on Day-28 or Day-21 or Day-14 or Day-7 or Day-2 or Day-1 or Day 0 (immediately before induction). Saline control and reference item (Solumedrol®; 20 μg/eye) were administered by a single injection in each eye on Day 0 (immediately before induction).
Animals were examined with a slit-lamp before XG-102 administration (baseline) before induction (Day 0) then 24 h after induction (Day 1). The inflammation was graded using a scoring system as described by Devos A., Van Haren M., Verhagen C., Hoek Zema R., Kijlstra A: Systemic anti-tumor necrosis factor antibody treatment exacerbates Endotoxin Induced Uveitis in the rat. Exp. Eye. Res. 1995; 61: 667-675. Briefly, flare, miosis and hypopion were scored for absence (0), or presence (1), iris hyperemia and cells in the anterior chamber were scored for absence (0), or mild (1) or severe presence (2). The maximum score (sum of the five parameter scores) was 7.
At the end of the evaluation (24 h after induction), animals were euthanized by intravenous injection of overdosed pentobarbital. The aqueous humor was collected immediately for each eye. For quantification of Cellular Infiltration in Aqueous Humor (AH), the sample was diluted 10-fold with PBS before detection. The number of infiltrated cells was manually counted after Giemsa staining under microscope.

[5] = biological target: JNK of primary mouse cortical neuron cultures; experiment: cell-based or functional assay
[6] = Dexamethasone group, blinded assessment
[7] = 20 μg/eye, both eyes treated on the day of induction, 24 h after LPS
[8] = 20 μg/eye, both eyes treated on the day of induction, vs vehicle

## C[C@@H]1C[C@H]2[C@@H]3CCC4=CC(=O)C=C[C@]4(C)[C@@]3(F)[C@@H](O)C[C@]2(C)[C@@]1(O)C(=O)CO [Dexamethasone, reference compound]
[1]; Visit 1 (21 hours), Full analysis population
  Cleared ocular inflammation (cell grade 0 and flare grade 0): Yes: 4 (8.2%) # patients (%)
[1]; Visit 1 (21 hours), Per-protocol population
  Cleared ocular inflammation (cell grade 0 and flare grade 0): Yes: 4 (8.2%) # patients (%)
[1]; Visit 2 (7 days), Full analysis population
  Cleared ocular inflammation (cell grade 0 and flare grade 0): Yes: 9 (18.8%) # patients (%)
[1]; Visit 2 (7 days), Per-protocol population
  Cleared ocular inflammation (cell grade 0 and flare grade 0): Yes: 9 (18.8%) # patients (%)
[1]; Visit 3 (14 days), Full analysis population
  Cleared ocular inflammation (cell grade 0 and flare grade 0): Yes: 10 (20.4%) # patients (%)
[1]; Visit 3 (14 days), Per-protocol population
  Cleared ocular inflammation (cell grade 0 and flare grade 0): Yes: 10 (21.3%) # patients (%)
[1]; Visit 4 (28 days), Full analysis population
  Cleared ocular inflammation (cell grade 0 and flare grade 0): Yes: 17 (35.4%) # patients (%)
[1]; Visit 4 (28 days), Per-protocol population
  Cleared ocular inflammation (cell grade 0 and flare grade 0): Yes: 15 (34.9%) # patients (%)
[1]; eye drops 4 times/day, 21 days
  percentage of patients for whom rescue medication was introduced: 4.0%
[2]; Dexamethasone (N = 50)
  AEs possibly or probably related to study treatment as assessed by the Investigator: 15 Total # events
[2]; Dexamethasone dose group
  Adverse events which led to an interruption of study treatment: 3 (5.5%) number of events (% of reported events)
  Reported AEs by severity: Mild: 42 (76.4%) number of events (%)
  Reported AEs by severity: Moderate: 9 (16.4%) number of events (%)
  Reported AEs by severity: Severe: 4 (7.3%) number of events (%)
[2]; [6]
  AEs considered by the Investigator to be related to Dexamethasone: 2 (3.6%) # events (%)
  AEs considered by the Investigator to be related to XG-102: 13 (23.64%) # events (%)
[2]; dexamethasone group
  AEs possibly or probably related to study medication: 15 events
  Intraocular pressure increased, patients: 14%
  events in SOC EYE DISORDERS: 30 events
  events resulting in premature withdrawal of study treatment eye drops: 3 events
  patients with SAE: 2 patients
  patients with event in SOC EYE DISORDERS: 16 (32%)
  percentage of patients with an AE within 24 hours after administration: 30%
  total number of AEs reported: 55

## CC(C)(C)[N+]([O-])=Cc1ccccc1 [PBN, Phenyl-N-tert-Butylnitrone, reference compound]
[3]; 50 mg/kg i.p., Day 9
  recovery of the a-wave (% of baseline): 70.4%
  recovery of the b-wave (% of baseline): 100%
[3]; 50 mg/kg i.p., Day 16
  recovery of the a-wave (% of baseline): 79.6%
  recovery of the b-wave (% of baseline): 103.6%
[3]; 50 mg/kg i.p., Day 23
  loss of mean ONL thickness versus untreated eyes: 16%
  recovery of the a-wave (% of baseline): 76.2%
  recovery of the b-wave (% of baseline): 102.4%
[3]; rat, in vivo, ip, 50 mg/kg
  ERG B-wave amplitude, percent of baseline, Mean ± SD: 100 ± 18.6%
  ONL thickness: 34.05 ± 4.00 μm
  ONL thickness Loss (% comparison with control non-induced eye): 16%

## C[C@H]1C[C@@H]2[C@H]([C@@H](O)C[C@@]3(C)[C@H]2CC[C@]3(O)C(=O)CO)[C@@]2(C)C=CC(=O)C=C12 [methylprednisolone, Methylprednisolone]
[4]; 20 μg/eye on Day 0
  clinical score, mean: 2.0±0.2
  clinical score, median: 2
  reduction of clinical score: 50%
[4]; [7]
  EIU clinical score, Mean ± SEM (n = 20): 2.0 ± 0.2
  EIU clinical score, Median: 2.0
  Inflammatory cells infiltrated into aqueous humor, Mean ± SEM (n = 20): 3170 ± 276 cells/μL
  Inflammatory cells infiltrated into aqueous humor, Median: 3385 cells/μL
[4]; [8]
  Reduction of clinical scores: 50%
  Reduction of leucocytes: 2%

## D-TAT-IB1(s) (peptide)
[5]
  JNK activation (immunoblot) in Aβ42-stressed PKR-/- cortical neurons; peptide at 10 µM: -35%
  JNK activity (pJNK/JNK ratio, immunoblot) in cortical neurons under H2O2 oxidative stress; peptide at 10 µM: 45%
  c-Jun phosphorylation (immunoblot) in Aβ42-stressed WT cortical neurons; peptide at 10 µM: -74%
